Where a name gives a salt, the structure may show the parent alone. Read-outs that look alike come from different tables or passages of the source.
What was measured:
C6 rat glioma cells = test: Screening and dose response assay (percent survival, 4 days, cresyl violet) on C6 glioma; type: cell-based
Excerpt: (§1) Screening and Dose Response Assays. […]-1-(2′-methoxybiphenyl-4-ylmethyl)-3,4-dihydro-1H-isoquinoline-2-carboxylic acid tert-butyl ester (7a; EDL-355) was synthesized as described herein in the laboratory of Dr. Duane D. Miller at The University of Tennessee Health Science Center. Briefly, the primary cultures of astrocytes and cultures of C6 glioma cell lines were handled identically with respect to treatment concentrations and manipulations of cells for the screening assays. The cells were trypsinized and transferred to 96-well plates at a cell density of 10^3 cells/mm^2 in the wells. The cells were grown overnight in 100 μL of 10% FCS BME in a 37° C. incubator containing a humid, 5% CO2 atmosphere.
(§2) EDL-355 was dissolved completely to make a 100 μM stock solution and diluted to produce a series of concentrations.
(§3) A 20 μL aliquot of these initial solutions was added to 180 μl of 2% FCS BME to produce the test concentration. The vehicle solution was tested as a control. […] Immediately before treatment, the 10% FCS BME was removed from the cells and replaced with the […] of the treatment medium. The cultured cells (normal primary cultures of rat brain astrocytes or C6 glioma purchased from ATCC) were incubated with test compound for 4 days. The cells were fixed with 4% paraformaldehyde, stained with 0.1% Cresylecth violet stain, and quantitated. The screening data was collected as four wells for each dose per compound (screening) or concentration (dose response curve). Also, the average growth of 8 wells with no treatment was used as a negative control for each plate (100% growth). The cells for dose response curves were grown in the same media and were handled in a similar manner as in the screening assays.
(§4) Data Analysis. The cytotoxic character of each compound was reported as the percent survival, calculated as the average A560 for treated cells divided by A560 of untreated (100% control) cells, and expressed as a percentage. Values less than 100% indicate a cytostatic or cytotoxic effect. Dose response curves and EC50 values were attained via plots of percent survival vs. concentration.

[1] = system: primary cultures of normal rat astrocytes; test: Screening and dose response assay (percent survival, 4 days, cresyl violet) on astrocytes; type: cell-based; settings: Table 1
Excerpt: as §1, §2, §3, §4

Molecule `COc1cc2c(c(OC)c1)C(Cc1ccc(-c3ccccc3OC)cc1)NCC2` (single isomer, unassigned) [12a] has an EC50 (C6 rat glioma cells; Table 1, listed as drawing 11, read-out: EC50 μM C6) of 5.4 µM, an EC50 (C6 rat glioma cells; text b70, rat C6 glioma cell lines, listed as (−) 12a, read-out: antiglioma activity on rat C6 glioma cell lines) of 5.39 µM and an EC50 ([1]; listed as drawing 11, read-out: EC50 μM Astrocyte) of 15.4 µM.

For `COc1cc2c(c(OC)c1)C(Cc1ccc(-c3ccccc3OC)cc1)NCC2` (single isomer, unassigned) [13a], the EC50 (C6 rat glioma cells; Table 1, listed as drawing 12, read-out: EC50 μM C6) was 0.3 µM, the “fold more potent than (−) 12a on rat C6 glioma cell lines” value (C6 rat glioma cells; ratio of the C6 values of (−) 12a and (+) 13a) was roughly 21 fold and the EC50 (C6 rat glioma cells; text b70, rat C6 glioma cell lines, listed as (+) 13a, read-out: antiglioma activity on rat C6 glioma cell lines) was 0.26 µM. It also gave an EC50 ([1]; Rattus norvegicus, Astrocyte) of 13.3 µM.

In the case of `COc1cc2c(c(OC)c1)C(Cc1ccc(-c3ccccc3OC)cc1)NCC2.Cl` (stereo not drawn) [9a, 6,8-Dimethoxy-1-(2′-methoxybiphenyl-4-ylmethyl)-1,2,3,4-tetrahydroisoquinoline hydrochloride], the melting point is reported as 140 to 142 °C, the EC50 ([1]; Rattus norvegicus, Astrocyte) is reported as 10.2 µM and the EC50 ([1]; hydrochloride, read-out: EC50 μM Astrocyte) is reported as 8.52 µM.

In the case of `COc1cc2c(c(OC)c1)C(Cc1ccc(-c3cnccc3OC)cc1)NCC2` (stereo not drawn) [9b, 6,8-Dimethoxy-1-[4-(4-methoxypyridin-3-yl)benzyl]-1,2,3,4-tetrahydroisoquinoline dihydrochloride], the EC50 (C6 rat glioma cells; Rattus norvegicus, Glioma cell, Table 1, read-out: EC50 μM C6) is reported as 0.08 µM and the EC50 ([1]; Rattus norvegicus, Astrocyte) is reported as 13.7 µM.
